# Results taken from patent publication US11542282B2, “Low affinity poly(AD-ribose) polymerase 1 dependent cytotoxic agents” (THE TRUSTEES OF THE UNIVERSITY OF PENNSYLVANIA, priority 2018, dated 2023).
# How the values were obtained:
# OVCAR8 cells = assay: Cell viability / cytotoxicity assay in OVCAR8 cells (CellTiter Glo); type: cell-based; settings: Homo sapiens, OVCAR-8, Table 4
# Experimental: (§1) Cells were cultured using standard techniques at 37° C. with 5% CO2 and 15% 02. […] Genetically engineered PARP-1 and PARP-2 double knockout mouse embryonic fibroblast (MEF) were used for cell viability studies with wildtype control. All cells were cultured in RPMI 1640 with 10% FBS and 1% penicillin/streptomycin.
# (§2) Cell viability assays were carried out using four cell lines including OVCAR8, MEF wt, MEF PARP-1 (−/−) KO, and MEF PARP-2 (−/−) KO as described in Makvandi cited above. Briefly, cells were seeded in black wall clear bottom 96-well plates at concentrations of 1,000 cells/well. After 24 h, cells were then treated with concentrations from 100-0.016 μM. Cells were incubated with compounds for 4-7 days and then assayed for cell viability using the luminescent based assay, CellTiter Glo (Promega, Waltham Mass.). Plates were read on an Enspire multimode plate reader (Perkin Elmer). Data was normalized to percent survival at each concentration evaluated by diving the luminescent signal in treated wells vs. the average of vehicle controls. Experiments were repeated three times and all compounds were assayed during each experiment.
# Cytotoxicity was then examined in OVCAR8 cells at 1, 10 and 100 μm concentrations as described above. See, FIGS. 1A-1C.
# EC50 values of compounds 18-103 were obtained using OVCAR8 cells. See, Table 4.
# PARP-1 = PARP-1 (Homo sapiens, UniProt P09874); assay: PARP-1 radioligand binding in live OVCAR8 cells ([125I]KX1 competition); settings: for IC50: radioligand binding in OVCAR8 cells
# Chain of PARP-1 (P09874 whole entry): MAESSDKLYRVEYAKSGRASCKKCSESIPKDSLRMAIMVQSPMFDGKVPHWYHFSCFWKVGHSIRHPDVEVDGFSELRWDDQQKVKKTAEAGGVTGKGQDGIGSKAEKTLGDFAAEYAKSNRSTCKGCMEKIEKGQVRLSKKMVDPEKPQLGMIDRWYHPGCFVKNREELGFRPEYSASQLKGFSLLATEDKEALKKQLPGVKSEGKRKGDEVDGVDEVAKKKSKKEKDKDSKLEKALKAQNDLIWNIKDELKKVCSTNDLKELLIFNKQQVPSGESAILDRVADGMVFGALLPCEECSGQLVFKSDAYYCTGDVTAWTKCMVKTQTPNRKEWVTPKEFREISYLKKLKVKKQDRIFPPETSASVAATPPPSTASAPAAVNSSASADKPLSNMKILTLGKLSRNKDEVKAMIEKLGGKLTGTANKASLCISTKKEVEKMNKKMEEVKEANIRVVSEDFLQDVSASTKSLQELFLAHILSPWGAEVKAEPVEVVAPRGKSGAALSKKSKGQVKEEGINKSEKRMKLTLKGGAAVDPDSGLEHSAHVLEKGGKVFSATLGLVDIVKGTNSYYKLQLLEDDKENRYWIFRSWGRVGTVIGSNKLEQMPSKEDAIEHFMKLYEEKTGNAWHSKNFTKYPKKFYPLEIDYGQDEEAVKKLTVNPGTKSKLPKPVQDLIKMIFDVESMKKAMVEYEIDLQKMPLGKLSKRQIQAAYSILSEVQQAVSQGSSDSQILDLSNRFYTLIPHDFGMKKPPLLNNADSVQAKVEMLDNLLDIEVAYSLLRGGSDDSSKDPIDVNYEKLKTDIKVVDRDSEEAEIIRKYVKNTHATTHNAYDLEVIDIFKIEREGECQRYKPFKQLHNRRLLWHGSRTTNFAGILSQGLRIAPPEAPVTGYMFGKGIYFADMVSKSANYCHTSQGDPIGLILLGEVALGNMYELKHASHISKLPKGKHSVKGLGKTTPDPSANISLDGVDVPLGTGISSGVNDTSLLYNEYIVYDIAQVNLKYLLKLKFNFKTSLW
# Experimental: as §1
# The affinity of each compound for the PARP-1 enzyme was evaluated using a radioligand binding method described in Makvandi, A radiotracer strategy to quantify PARP-1 expression in vivo provides a biomarker that can enable patient selection for PARP inhibitor therapy. Cancer Research 2016. Briefly, OVCAR8 ovarian cancer cells were seeded in 96-well Stripwell plates at a density of 40,000 cells/well 24 hrs prior to the study. On the day of study, compounds were diluted in RPMI to concentrations of 100 μM-0.064 nM. […] Reactions were allowed to equilibrate for 1 hr and were then washed with 200 μL of PBS. Wells were separated and counted on an automatic Wizard gamma counter (Perkin Elmer, Waltham Mass.). […] Experiments were repeated three times with adjusting dose concentrations to increase accuracy of IC50 values.
# Compounds 10-17 were evaluated for PARP-1 inhibition using a radioligand binding assay protocol with BRCA1 methylated ovarian cancer cells (OVCAR8) as described above. See, Table 3. […] Compared to 1a, oxaazaspiro analogue 1b performed slightly better with scaffold 10b displaying a PARP-1 binding value of 24.9 nM.
# MEF WT cells = assay: Cell viability assay in MEF WT cells; type: cell-based, mouse; settings: NA = Not applicable, no cell death observed
# Experimental: (§3) Genetically engineered PARP-1 and PARP-2 double knockout mouse embryonic fibroblast (MEF) were used for cell viability studies with wildtype control.
# as §2, with “After 24 h, cells were then treated with concentrations from 100-0.016 μM. Cells were incubated with compounds for 4-7 days and then assayed for cell viability using the luminescent based assay, CellTiter Glo (Promega, Waltham Mass.).” left out
# (§4) This isogenic model was selected due to the highly conserved nature of the PARP catalytic domain, all-owing investigation in enzyme specificity.
# [1] = tested on: MEF PARP-2 (-/-) KO cells; assay: Cell viability assay in MEF PARP-2 KO-/- cells; type: cell-based, mouse; settings: Mus musculus, NA = Not applicable, no cell death observed
# Experimental: as §3
# as §2, with “After 24 h, cells were then treated with concentrations from 100-0.016 μM. Cells were incubated with compounds for 4-7 days and then assayed for cell viability using the luminescent based assay, CellTiter Glo (Promega, Waltham Mass.).” left out
# as §4
# The cell cytotoxicity profile of these selected compounds in MEF PARP-2 KO−/− cell lines was then analyzed as described above.
# [2] = tested on: MEF PARP-1 (-/-) KO cells; assay: Cell viability assay in MEF PARP-1 KO-/- cells; type: cell-based; settings: Mus musculus, NA = Not applicable, no cell death observed
# Experimental: as §3
# as §2, with “After 24 h, cells were then treated with concentrations from 100-0.016 μM. Cells were incubated with compounds for 4-7 days and then assayed for cell viability using the luminescent based assay, CellTiter Glo (Promega, Waltham Mass.).” left out
# as §4
# Enzyme dependency of selected compounds in MEF PARP-1 KO−/− cells (FIG. 2B) was performed as described above in order to identify if these analogues act through other cellular targets.
SMILES,EC50 (PARP-1),IC50 (PARP-1),"fold lower PARP-1 affinity compared to the methylene congener (PARP-1; 10c vs 10a, 15b vs 15a)",EC50 (OVCAR8 cells),EC50 (MEF WT cells; Mus musculus),EC50 [1],EC50 [2],EC50 (MEF WT cells)
O=C(c1ccc(F)cc1)N1CC2(C1)CN(C(=O)c1cc(Cc3n[nH]c(=O)c4ccccc34)ccc1F)C2 [46 (X = F)],0.0218 µM,–,–,36 µM,–,–,–,–
"O=C(c1cc(Cc2n[nH]c(=O)c3ccccc23)ccc1F)N1CCC2(CC1)CCN(C(=O)C1CC1)CC2 [Compound 17d, 4-(3-(9-(Cyclopropanecarbonyl)-3,9-diazaspiro[5.5]undecane-3-carbonyl)-4-fluorobenzyl)phthalazin-1(2H)-one]",0.0443 µM,0.0443 µM,–,–,24.8 µM,21.6 µM,49.7 µM,–
CO[C@H]1C[C@@H](NC(=O)c2cc(Cc3n[nH]c(=O)c4ccccc34)ccc2F)C1 [Compound 19],0.0208 ± 0.0011 µM,–,–,17.1 ± 1.2 µM,–,–,–,–
CO[C@H]1C[C@H](NC(=O)c2cc(Cc3n[nH]c(=O)c4ccccc34)ccc2F)C1 [Compound 20],–,–,–,72.2 µM,–,–,–,–
COC1CCC(NC(=O)c2cc(Cc3n[nH]c(=O)c4ccccc34)ccc2F)C1 (stereo not shown) [Compound 21],0.0496 ± 0.0011 µM,–,–,17 ± 1.2 µM,–,–,–,–
COC1CCC(NC(=O)c2cc(Cc3n[nH]c(=O)c4ccccc34)ccc2F)CC1 (stereo not shown) [Compound 22],0.2263 ± 0.0011 µM,–,–,16.2 ± 1.2 µM,–,–,–,–
COC1CN(C(=O)c2cc(Cc3n[nH]c(=O)c4ccccc34)ccc2F)C1 [Compound 23],0.00827 ± 0.0011 µM,–,–,71.5 ± 1.2 µM,–,–,–,–
COC1CCN(C(=O)c2cc(Cc3n[nH]c(=O)c4ccccc34)ccc2F)C1 (stereo not shown) [Compound 24],0.00421 ± 0.0011 µM,–,–,37.3 ± 1.2 µM,–,–,–,–
COC1CCCN(C(=O)c2cc(Cc3n[nH]c(=O)c4ccccc34)ccc2F)CC1 (stereo not shown) [Compound 25],0.00474 ± 0.0011 µM,–,–,20.2 ± 1.3 µM,–,–,–,–
"O=C(c1cc(Cc2n[nH]c(=O)c3ccccc23)ccc1F)N1CC(OCCF)C1 [Compound 26, 4-(4-fluoro-3-(3-(2-fluoroethoxy)azetidine-1-carbonyl)benzyl)phthalazin-1(2H)-one]",0.00754 ± 0.0011 µM,–,–,74.1 ± 1.3 µM,–,–,–,–
"O=C(c1cc(Cc2n[nH]c(=O)c3ccccc23)ccc1F)N1CC[C@@H](OCCF)C1 [Compound 28, (R)-4-(4-fluoro-3-(3-(2-fluoroethoxy)pyrrolidine-1-carbonyl)benzyl)phthalazin-1(2H)-one]",0.0101 ± 0.0011 µM,–,–,30.9 ± 1.2 µM,–,–,–,–
"O=C(c1cc(Cc2n[nH]c(=O)c3ccccc23)ccc1F)N1CC[C@H](OCCF)C1 [Compound 29, (S)-4-(4-fluoro-3-(3-(2-fluoroethoxy)pyrrolidine-1-carbonyl)benzyl)phthalazin-1(2H)-one]",0.00688 µM,–,–,56.6 µM,–,–,–,–
"O=C(c1cc(Cc2n[nH]c(=O)c3ccccc23)ccc1F)N1CCC(OCCF)CC1 [Compound 31, 4-(4-fluoro-3-(4-(2-fluoroethoxy)piperidine-1-carbonyl)benzyl)phthalazin-1(2H)-one]",0.00395 ± 0.0012 µM,–,–,17.1 ± 1.2 µM,–,–,–,–
"O=C(c1cc(Cc2n[nH]c(=O)c3ccccc23)ccc1F)N1CCCC(OCCF)CC1 (stereo not shown) [Compound 33, 4-(4-fluoro-3-(4-(2-fluoroethoxy)azepane-1-carbonyl)benzyl)phthalazin-1(2H)-one]",0.00562 ± 0.0011 µM,–,–,11.3 ± 1.3 µM,–,–,–,–
"O=C(c1cc(Cc2n[nH]c(=O)c3ccccc23)ccc1F)N1CC2(C1)CN(c1ccc(F)cc1)C2 [Compound 40, 4-(4-fluoro-3-(6-(4-fluorophenyl)-2,6-diazaspiro[3.3]heptane-2-carbonyl)benzyl)phthalazin-1(2H)-one]",0.000376 µM,–,–,12 µM,–,–,–,–

# Further lines, with some results ahead:
EC50 (PARP-1),IC50 (PARP-1),"fold lower PARP-1 affinity compared to the methylene congener (PARP-1; 10c vs 10a, 15b vs 15a)",SMILES,EC50 (OVCAR8 cells),EC50 (MEF WT cells; Mus musculus),EC50 [1],EC50 [2],EC50 (MEF WT cells)
0.0654 ± 0.0015 µM,–,–,"O=C(c1cc(Cc2n[nH]c(=O)c3ccccc23)ccc1F)N1CC2(CCCCC2)C1 [Compound 12a, 4-(4-Fluoro-3-(2-azaspiro[3.5]nonane-2-carbonyl)benzyl)phthalazin-1(2H)-one]",–,25.6 µM,39.9 µM,48.3 µM,–
3.12 µM,3.12 µM,–,"CC(C)(C)OC(=O)N1CCC2(CC1)CN(C(=O)c1cc(Cc3n[nH]c(=O)c4ccccc34)ccc1F)C2 [Compound 12b, Tert-butyl 2-(2-fluoro-5-((4-oxo-3,4-dihydrophthalazin-1-yl)methyl)benzoyl)-2,7-diazaspiro[3.5]nonane-7-carboxylate]",–,~23 µM,41.5 µM,49.2 µM,23.4 µM
4.4 µM,4.4 µM,~85 fold,"CC(C)(C)OC(=O)N1CCC2(CCN(C(=O)c3cc(Cc4n[nH]c(=O)c5ccccc45)ccc3F)C2)C1 (stereo not shown) [Compound 15b, Tert-butyl 7-(2-fluoro-5-((4-oxo-3,4-dihydrophthalazin-1-yl)methyl)benzoyl)-2,7-diazaspiro[4.4]nonane-2-carboxylate]",–,17.2 µM,23.4 µM,46.4 µM,–
0.1414 ± 0.0013 µM,–,–,"O=C(c1cc(Cc2n[nH]c(=O)c3ccccc23)ccc1F)N1CCC2(CCCCC2)C1 [Compound 16a, 4-(4-Fluoro-3-(2-azaspiro[4.5]decane-2-carbonyl)benzyl)phthalazin-1(2H)-one]",–,42.7 µM,46.8 µM,51.6 µM,–
1.1 µM,–,–,"CC(C)(C)OC(=O)N1CCC2(CC1)CCN(C(=O)c1cc(Cc3n[nH]c(=O)c4ccccc34)ccc1F)C2 [Compound 16b, Tert-butyl 2-(2-fluoro-5-((4-oxo-3,4-dihydrophthalazin-1-yl)methyl)benzoyl)-2,8-diazaspiro[4.5]decane-8-carboxylate]",–,9.4 µM,31.6 µM,45.9 µM,–
0.225 µM,–,–,"O=C(c1cc(Cc2n[nH]c(=O)c3ccccc23)ccc1F)N1CCC2(CCN(C(=O)C3CC3)CC2)C1 [Compound 16d, 4-(3-(8-(Cyclopropanecarbonyl)-2,8-diazaspiro[4.5]decane-2-carbonyl)-4-fluorobenzyl)phthalazin-1(2H)-one]",–,41.6 µM,61 µM,–,–
0.0571 ± 0.0012 µM,–,–,"O=C(c1cc(Cc2n[nH]c(=O)c3ccccc23)ccc1F)N1CCC2(CCCCC2)CC1 [Compound 17a, 4-(4-Fluoro-3-(3-azaspiro[5.5]undecane-3-carbonyl)benzyl)phthalazin-1(2H)-one]",–,41.3 µM,41.3 µM,–,–
0.453 µM,0.453 µM,–,"CC(C)(C)OC(=O)N1CCC2(CC1)CCN(C(=O)c1cc(Cc3n[nH]c(=O)c4ccccc34)ccc1F)CC2 [Compound 17b, Tert-butyl 9-(2-fluoro-5-((4-oxo-3,4-dihydrophthalazin-1-yl)methyl)benzoyl)-3,9-diazaspiro[5.5]undecane-3-carboxylate]",–,16.9 µM,19.2 µM,43.4 µM,–
